Each structure is given as a SMILES string.

One experiment deals with SULT2B1b (Homo sapiens (Human), UniProt O00204). Kind of experiment: LC-MS/MS based in vitro assay (DHEA-sulfate formation). Type of experiment: biochemical. The following applies: 100 μM compound, 2 hours; mean±s.e.m., n=3. The procedure: LC-MS/MS Based In Vitro Assay. Stock solutions of DHEA (5 mM in DMSO) and compound of interest (5 mM in DMSO) were prepared. […] SULT2B1b was diluted to 1.5 μg/μL in protein storage buffer then down to 0.8 μg/μL in 1× activity assay buffer. 30 μL of 0.8 μg/μL SULT2B1b was added to each reaction. Reactions were incubated for 2 hours at 37° C. with shaking at 250 rpm. To quench, 30 μL reaction mix was added to 30 μL ice cold 0.5% HCl in MeCN, then centrifuged at 13,000 xg at room temperature for 3 min. 50 μL supernatant was transferred to an empty Eppendorf tube and submitted for LC-MS/MS quantification (UIUC Metabolomics Center), along with 5 mM DHEA sulfate standard. Controls: Reaction mix made with DHEA and DMSO in place of compound of interest (DHEA control). […] General LC-MS/MS Quantification Method. Both DHEAS and CS samples were analyzed by 6500 QTRAP (Sciex, Redwood City, CA) liquid chromatography-tandem mass spectrometry. […] The flow rate was 0.3 mL/min. […] The source temperature was 400° C. […] Cholesterol-sulfate and DHEA-sulfate were detected by multiple reaction monitoring (MRM) at m/z 465→97.0 and 367.0→97.0 respectively. Software Analyst 1.7.1 ([…]) was used for data acquisition and analysis.

For experiment [1], the system named is whole cell CS levels in MCF-7. Kind of experiment: Whole cell cholesterol sulfate quantification, MCF-7. Format: cell-based, human. The settings on record: 72 hours. The procedure:
(§1) General Whole Cell Cholesterol Sulfate Quantification. 60×15 mm tissue culture dishes were seeded with MCF-7 at 2×10^6 cells/dish or T47D at 1×10^6 cells per dish, 5 mL total media volume, and allowed to adhere overnight. Compounds of interest were dissolved in DMSO. Cells were treated with 25 μL 1.25 mM compound of interest stock (6.25 μM final compound concentration, 0.5% final DMSO concentration) or DMSO for 72 hours. To harvest, media was aspirated, and cells were washed once with PBS before detaching with trypsin. Trypsin was quenched with media. Cells were centrifuged at 300 xg for 3 minutes and supernatant was discarded. Cells were resuspended in media and counted using a Countess 3 automated cell counter (Thermo Fisher Scientific). 1.5×10^6 cells were collected, washed twice with 1 mL PBS, then pelleted and stored at −80° C. until lysis. Cell pellets were resuspended in 200 μL cold 70:30 methanol:water and placed on ice. Cell suspension was sonicated on ice (30%, 10 s on, 20 s off, 1 min total) and continued to be incubated on ice for 30 minutes. Lysate was clarified by centrifugation at 14,100 xg at 4° C. for 30 minutes. 100 μL of supernatant was transferred to an empty Eppendorf tube and submitted for LC-MS/MS quantification (UIUC Metabolomics Center), along with 5 mM cholesterol sulfate sodium salt standard.
as §1, with “Time Course Whole Cell” for “General Whole Cell”, “2×10^6 cells/dish per dish,” for “2×10^6 cells/dish or T47D at 1×10^6 cells per dish,”, “DMSO for 0 (harvested immediately), 4, 8, 24, 48, or 72 hours.” for “DMSO for 72 hours.”
Whole Cell Cholesterol Sulfate Quantification with Compound Removal. 60×15 mm tissue culture dishes were seeded with MCF-7 at 2×10^6 cells/dish, 5 mL total media volume, and allowed to adhere overnight. Compounds of interest were dissolved in DMSO. Cells were treated with 25 μL 1.25 mM compound of interest stock (6.25 μM final compound concentration, 0.5% final DMSO concentration) for 0 hours (harvested immediately) or 24 hours. Media was aspirated and replaced with 5 mL fresh media, then cells were either harvested (24 hour time point) or further incubated. To harvest, media was aspirated, and cells were washed once with PBS before detaching with trypsin. Trypsin was quenched with media. Cells were centrifuged at 300 xg for 3 minutes and supernatant was discarded. Cells were resuspended in media and counted using a Countess 3 automated cell counter (Thermo Fisher Scientific). 1.5×10^6 cells were collected, washed twice with 1 mL PBS, then pelleted and stored at −80° C. until lysis. Cell pellets were resuspended in 200 μL cold 70:30 methanol:water and placed on ice. Cell suspension was sonicated on ice (30%, 10 s on, 20 s off, 1 min total) and continued to be incubated on ice for 30 minutes. Lysate was clarified by centrifugation at 14,100 xg at 4° C. for 30 minutes. […]

Experiment [2] concerns free cholesterol levels in MCF-7. Description: Whole cell cholesterol assay. Format: cell-based, human. The following applies: MCF-7, 6.25 μM, 72 hours. How it is done:
Whole Cell Cholesterol Assay. Assay was run according to manufacturer's instructions. Briefly, 5000 MCF-7 cells were plated in 99 μL media in a 96-well plate and allowed to adhere overnight before DMSO solutions of compounds were added to each well. Final concentration of DMSO in each well is 1%, final volume: 100 μL. At the end of 72 hours, media was aspirated, and cells were washed twice with 100 μL PBS. 50 μL of cholesterol lysis solution was added and cells were incubated for 30 minutes at 37° C. 50 μL of sample was then transferred to a 96-well white walled assay plate. 50 μL of cholesterol detection reagent was added to all wells and incubated at room temperature for 1 hour. Luminescence was read using a SpectraMax M3 plate reader (Molecular Devices). Cholesterol levels were determined by use of a cholesterol standard curve.

SULT2B1b, sequence (O00204 whole entry): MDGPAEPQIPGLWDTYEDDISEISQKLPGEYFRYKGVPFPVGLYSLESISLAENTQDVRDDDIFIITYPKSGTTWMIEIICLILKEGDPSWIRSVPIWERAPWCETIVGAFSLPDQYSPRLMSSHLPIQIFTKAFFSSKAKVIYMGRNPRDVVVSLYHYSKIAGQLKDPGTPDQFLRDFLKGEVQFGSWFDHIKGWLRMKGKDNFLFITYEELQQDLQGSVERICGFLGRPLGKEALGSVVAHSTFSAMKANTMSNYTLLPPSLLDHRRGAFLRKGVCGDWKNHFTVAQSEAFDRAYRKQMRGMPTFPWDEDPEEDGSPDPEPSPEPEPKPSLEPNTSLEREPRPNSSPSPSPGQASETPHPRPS

Take `C[C@]12CCC(=O)N(Cc3ccc(F)cc3)C1=CC[C@@H]1[C@@H]2C(=O)C[C@]2(C)C(=O)CC[C@@H]12` [Compound 4, (4aR,4bS,6aS,9aS,9bS)-1-(4-fluorobenzyl)-4a,6a-dimethyl-3,4,4a,6,6a,8,9,9a,9b,10-decahydro-1H-indeno[5,4-f]quinoline-2,5,7(4bH)-trione]: the inhibition (usually the percentage by which the read-out fell short of the control) at 100 µM at SULT2B1b came to 55 ± 2%.

`C[C@]12CCC(=O)N(Cc3ccccc3)C1=CC[C@@H]1[C@@H]2C(=O)C[C@]2(C)C(=O)CC[C@@H]12` [Compound 5, (4aR,4bS,6aS,9aS,9bS)-1-benzyl-4a,6a-dimethyl-3,4,4a,6,6a,8,9,9a,9b,10-decahydro-1H-indeno[5,4-f]quinoline-2,5,7(4bH)-trione] had an inhibition at 100 µM on SULT2B1b of 48 ± 2%.

On to `CN1C(=O)CC[C@@]2(C)C1=CC[C@@H]1[C@@H]2C(=O)C[C@]2(C)C(=O)CC[C@@H]12` [Compound 6, (4aR,4bS,6aS,9aS,9bS)-1,4a,6a-trimethyl-3,4,4a,6,6a,8,9,9a,9b,10-decahydro-1H-indeno[5,4-f]quinoline-2,5,7(4bH)-trione], for which at 100 µM the inhibition on SULT2B1b was 8.8 ± 0.4%. Besides, in experiment [1] (MCF-7, 6.25 μM compound), the “whole cell CS levels vs DMSO” value is “not seen”. Moreover, the “free cholesterol levels vs DMSO” value in experiment [2] is recorded as “no statistical difference”.

Molecule `C[C@]12CCC(=O)N(Cc3cccc(Cl)c3)C1=CCC1[C@@H]2C(=O)C[C@]2(C)C(=O)CC[C@@H]12` (stereo partly drawn) [Compound 7, (4aR,4bS,6aS,9aS,9bS)-1-(3-chlorobenzyl)-4a,6a-imethy-3,4,4a,6,6a,8,9,9a,9b,10-decahydro-1H-indeno[5,4-f]quinoline-2,5,7(4bH)-trione] had an inhibition at 100 µM on SULT2B1b of 69.8 ± 0.5%.

Regarding `C[C@]12CCC(=O)N(Cc3ccccc3Cl)C1=CC[C@@H]1[C@@H]2C(=O)C[C@]2(C)C(=O)CC[C@@H]12` [Compound 8, (4aR,4bS,6aS,9aS,9bS)-1-(2-chlorobenzyl)-4a,6a-dimethyl-3,4,4a,6,6a,8,9,9a,9b,10-decahydro-1H-indeno[5,4-f]quinoline-2,5,7(4bH)-trione], at SULT2B1b, testing at 100 µM gave an inhibition of 46 ± 1%.

In the case of `C[C@]12CCC(=O)N(Cc3ccc(Cl)cc3)C1=CC[C@@H]1[C@@H]2CC[C@]2(C)C(=O)CC[C@@H]12` [Compound 9, (4aR,4bS,6aS,9aS,9bR)-1-(4-chlorobenzyl)-4a,6a-dimethyl-3,4,4a,4b,5,6,6a,8,9,9a,9b,10-dodecahydro-1H-indeno[5,4-f]quinoline-2,7-dione], the inhibition at 100 µM on SULT2B1b came to 53 ± 1%.

For `C[C@]12CCC(=O)N(Cc3ccc(Cl)cc3)C1=CC[C@@H]1[C@@H]2C(=O)C[C@@]2(C)[C@H]1CCC21OCCO1` [Compound 10, (4aR,4bS,6aS,9aS,9bS)-1-(4-chlorobenzyl)-4a,6a-dimethyl-1,3,4,4a,4b,6,6a,8,9,9a,9b,10-dodecahydrospiro[indeno[5,4-f]quinoline-7,2′-[1,3]dioxolane]-2,5-dione], testing at 100 µM against SULT2B1b gave an inhibition of 45 ± 1%.

For `C[C@]12CCC(=O)N(Cc3ccc(Br)nc3)C1=CC[C@@H]1[C@@H]2C(=O)C[C@]2(C)C(=O)CC[C@@H]12` [Compound 11, (4aR,4bS,6aS,9aS,9bS)-1-((6-bromopyridin-3-yl)methyl)-4a,6a-dimethyl-3,4,4a,6,6a,8,9,9a,9b,10-decahydro-1H-indeno[5,4-f]quinoline-2,5,7(4bH)-trione], the inhibition at 100 µM at SULT2B1b was found to be 53 ± 1%.

Turning to `C[C@]12CCC(=O)N(Cc3ccc4ccccc4c3)C1=CC[C@@H]1[C@@H]2C(=O)C[C@]2(C)C(=O)CC[C@@H]12` [Compound 12, (4aR,4bS,6aS,9aS,9bS)-4a,6a-dimethyl-1-(naphthalen-2-ylmethyl)-3,4,4a,6,6a,8,9,9a,9b,10-decahydro-1H-indeno[5,4-f]quinoline-2,5,7(4bH)-trione], the inhibition at 100 µM against SULT2B1b was 52 ± 10%.

Molecule `C[C@]12CCC(=O)N(CC3CC3)C1=CC[C@@H]1[C@@H]2C(=O)C[C@]2(C)C(=O)CC[C@@H]12` [Compound 13, (4aR,4bS,6aS,9aS,9bS)-1-(cyclopropylmethyl)-4a,6a-dimethyl-3,4,4a, 6,6a, 8,9,9a, 9b,10-decahydro-1H-indeno[5,4-f]quinoline-2,5,7(4bH)-trione] displayed an inhibition at 100 µM on SULT2B1b of 27 ± 2%.

With `C[C@]12CCC(=O)N(CC3CCCCC3)C1=CC[C@@H]1[C@@H]2C(=O)C[C@]2(C)C(=O)CC[C@@H]12` [Compound 14, (4aR,4bS, 6aS, 9aS, 9bS)-1-(cyclohexylmethyl)-4a, 6a-dimethyl-3,4,4a, 6,6a, 8,9,9a, 9b,10-decahydro-1H-indeno[5,4-f]quinoline-2,5,7(4bH)-trione], testing at 100 µM at SULT2B1b gave an inhibition of 48 ± 2%.

Regarding `O=CC1(C2(C=O)c3ccccc3-c3ccccc32)c2ccccc2-c2ccccc21` [Raptinal, reference compound], the “whole cell CS levels vs DMSO” value in experiment [1] (MCF-7, sub-lethal 0.156 μM) is recorded as “no significant difference”.

These data come from patent US20240400606A1, “SMALL MOLECULE ACTIVATORS OF THE IMMUNE SYSTEM” (THE BOARD OF TRUSTEES OF THE UNIVERSITY OF ILLINOIS, priority 2021, published 2024).
